{
  "source": "patent US20070254037A1",
  "about": "(priority 2004, published 2007)",
  "key": {"[1]": {"system": "metastasis in the 10th dorsal vertebra from a breast tumor", "experiment": "Example 14: intratumoural injection into vertebral metastasis", "assay_type": "in vivo, human", "conditions": "on the next day; 20 mg as SLN in 1 ml poly(orthoesther) paste", "protocol": "A person presents with metastases originating from a breast tumor operated and irradiated 3 years before. […] The patient is young and one wants to keep radiotherapy for further recurrences. They benefit from an intratumoural injection of 1 ml of polymeric paste (poly(orthoesther)), containing 20 mg of Antimycin A formulated as SLN. The paste is deposited in the center of the metastasis under fluoroscopy control. The pain drops on the next day by ⅔. […] This allows to visualize the elution rate and the melting process of the polymer, and to better follow and understand the kinetics of the treatment.\nAt 3 weeks the polymer has nearly totally disappeared, and the patient is sent for the injection of a cement (methylmethacrylate) inside the vertebra, under fluoroscopy. The pain disappears totally and the patient is followed up locally, ready to be treated when new metastases appear."}, "[2]": {"system": "metastatic prostate cancer", "experiment": "Phase I clinical trial of Rhodamine 123 intra-venous infusions", "assay_type": "in vivo, human", "conditions": "for a 70 kg patient", "protocol": "The Huntington Medical Research Institutes are addressing this issue in metastatic prostate cancer (Lawrence W. Jones, M. D. Huntington Memorial Hospital). Recently this institute published the results of a clinical trial where 33 patients with metastatic prostate cancer were treated with Rhodamine 123 intra-venous infusions.\nBecause inhibitors of oxidative phorphorylation are extremely toxic to a subject in the doses needed for efficacy via the systemic route, such inhibitors have been largely overlooked for effective treatment of conditions such as cancer. […] It is also known that the maximal tolerated dose of Rhodamine 123 delivered intra-venously in man is 95 mg/m^2. For a 70 kg patient, the maximum dose of systemically delivered rhodamine is about 150 mg. […] There was an accumulation of rhodamine in the prostate of the patients, but it was not sufficient to provoke a significant response."}, "tumour": {"system": "tumour", "experiment": "Rhodamine delivered directly in the tumour (slow release)", "assay_type": "in vivo", "conditions": "40 or 50 mg directly in the tumour", "from_the_text": "By locally delivering oxidative phosphorylation inhibitors into proliferating cells in a slow release formulation, the delivery period is prolonged i.e. the inhibitors are not cleared by the liver, and the dose received by the tumour is effectively higher than using systemic delivery. Furthemore, the lethal dose can be greatly exceeded. […] Such a dose, delivered systemically, would require 100 g of rhodamine, more than 1000 times the lethal dose. Thus, a composition comprising an oxidative phorphosrylation inhibitor in a slow release formulation increases the effective dose to the tumour and permits greater than lethal dosing."}, "[3]": {"system": "metastatic prostate cancer", "conditions": "cited from earlier work"}, "[4]": {"conditions": "rodents; cited from earlier work"}, "[5]": {"system": "lymphnode in the left cervical area (tonsillar carcinoma)", "experiment": "Example 13: rods implanted in cervical lymphnode", "assay_type": "in vivo, human", "protocol": "A patient presents with a 10 cm diameter lymphnode located in the left cervical area. […] The patient refuses any kind of prolonged therapy. They accept a tumour implantation of a slow release drug. Fourteen 7 cm long rods of lactide-capronolactone containing rotenone, are implanted. The total dose of rotenone delivered over 2 weeks by the rods is 60 mg. […] The patient accepts radiation therapy."}, "right breast tumor": {"system": "right breast tumor", "experiment": "Example 12: rods implanted in breast tumor", "assay_type": "in vivo, human"}, "[6]": {"system": "right axillar lymphnode (recurrence of melanoma)", "experiment": "Example 11: slow release injection into melanoma axillar lymphnode", "assay_type": "in vivo, human"}, "meningioma": {"system": "meningioma", "experiment": "Example 16: stereotactic injection into meningioma", "assay_type": "in vivo, human"}},
  "data": [
    {"compound": "Antimycin A", "values": [
      {"measurement": "drop of pain", "setting": "[1]", "value": "⅔"}
    ]},
    {"compound": "rhodamine", "values": [
      {"measurement": "maximum dose of systemically delivered rhodamine", "setting": "[2]", "value": "about 150 mg"},
      {"measurement": "tumour outcome", "setting": "tumour", "value": "tumour death"},
      {"measurement": "effect on prostate tumours", "setting": "[3]; systemic, at the maximum non-lethal dose", "value": "no useful effect"}
    ]},
    {"compound": "rhodamine 123", "values": [
      {"measurement": "LD10 (the dose which kills 10% of animals)", "setting": "[4]", "value": 20, "unit": "mg/kg"},
      {"measurement": "tumour response", "setting": "[3]; 33 patients with metastatic prostate cancer, intra-venous infusions", "value": "no significant tumour response"},
      {"measurement": "PSA change", "setting": "[3]; 33 patients with metastatic prostate cancer, intra-venous infusions, in some cases", "value": "slight PSA reduction"},
      {"measurement": "maximal tolerated dose", "setting": "[3]; delivered intra-venously in man", "value": 95, "unit": "mg/m^2"}
    ]},
    {"compound": "C=C(C)[C@H]1Cc2c(ccc3c2O[C@@H]2COc4cc(OC)c(OC)cc4[C@@H]2C3=O)O1", "note": "[rotenone]", "values": [
      {"measurement": "mass size", "setting": "[5]; initially 10 cm, 6 weeks after rods delivering 60 mg over 2 weeks", "value": 5.5, "unit": "cm"},
      {"measurement": "lymphnode outcome", "setting": "[5]; new implantation with 30 mg plus radiation dose of 50 Gy", "value": "totally disappears"}
    ]},
    {"compound": "sodium arsenate", "values": [
      {"measurement": "tumor diameter", "setting": "right breast tumor; after second session, 3 rods, total dose 30 mg", "value": 3, "unit": "cm"},
      {"measurement": "tumor diameter", "setting": "right breast tumor; initially 6 cm, 2 months after four rods with 10 mg each", "value": 4, "unit": "cm"}
    ]},
    {"compound": "O=C(O)CF", "note": "[fluoroacetate]", "values": [
      {"measurement": "remaining induration size", "setting": "[6]; 6 months later, after additional 6 sessions of radiotherapy at 5 Gy", "value": 1, "unit": "cm"},
      {"measurement": "lymphnode size", "setting": "[6]; initially 5 cm, 1 month after 4 mg fluoroacetate slow release", "value": 3, "unit": "cm"},
      {"measurement": "lesion finding on MRI", "setting": "meningioma; MRI two months after 4 mg in poly(ortho)ester", "value": "partial necrosis"},
      {"measurement": "tumour necrosis on histological examination", "setting": "meningioma; after surgical intervention", "value": 80, "unit": "%"},
      {"measurement": "lesion size", "setting": "meningioma; initially 3 cm, MRI two months after 4 mg in poly(ortho)ester", "value": 2.5, "unit": "cm"}
    ]}
  ]
}
